# Key:
# Format in all cases: in vivo
# [1] = test system: Leptinotarsa decemlineata; assay: Example 8 Trial 2 potato, Leptinotarsa decemlineata (LEPTNDE) control; conditions: appl. AB
# From the text: Trial 2: Potatoes, 4 replicates per plot, each plot at least 25 m^2. A water volume of 200 L water/ha was used for each application. Two applications were made at a 14d interval.
# Application made at the occurrence of the insects. Application A was made at Stage BBCH 39-41, application B was made 14 days later at Stage BBCH 41-44.
# Insects present at the time of application: at App A: 9/10 plants at App B in untreated: 44/10 plants
# Myzus persicae = assay: Example 10 potato trial, Myzus persicae (green aphids, MYZUPE) control; conditions: appl. AB
# From the text: Potatoes—Myzus persicae (Green Aphids)—MYZUPE
# Potatoes, variety Agata, 4 replicates per plot. A water volume of 200 L water/ha was used for each application. Two applications were made at a 14d interval.
# Application made at the occurrence of the insects. Application A was made at Stage BBCH 38-41, application B was made 14 days later at Stage BBCH 41-43.
# Insects present at the time of application: at App A 93 aphids per 25 leaves at App B in untreated: 160 aphids per 25 leaves
# Pea = assay: Example 5 phytotoxicity, chlorosis (PHYCHL) on pea; parameters: scale not given here; conditions: appl. AB
# Procedure: The trial was conducted on peas, variety Batuta, 4 replicates per plot. A water volume of 200 L water/ha was used for each application. Two applications were made, Application A was made at first infestation and Application B was made 14d later. Each plot at least 12 m^2.
# Tomato = assay: Example 1 phytotoxicity, general injury (PHYGEN) on tomato; conditions: appl. A
# From the text: “Low Phytotoxicity” of pelargonic acid, as used herein means that the toxic effect on plants is absent or at such a level so as not to adversely impact the growth and/or yield of the plant under a given set of test conditions, e.g., at a given concentration of pelargonic acid. Phytotoxic effects may be measured in a number of different ways, for example, according to the principals set out in OEPP/EPPO Bulletin (2014) 44(3), 265-273 “PP 1/135 (4) Phytotoxicity assessment”. The phytotoxic effect on plants may be assessed visually as a function of the percentage of discoloration to the leaves and/or the appearance of necrosis. When the pelargonic acid compositions are applied to the foliage of the vegetable plants in accordance with the teachings herein, will typically result in a level of phytotoxicity of less than 20%, preferably less than 15%, more preferably less than 10% necrosis of the leaves in comparison to untreated plants. Preferred uses of the invention will typically result in phytotoxicity of 7% or less, whilst the most preferred uses will typically result in phytotoxicity of 5% or less. The above values are approximate as any purely visual assessment is likely to contain a degree of subjectivity.
# Trial conducted in 4 replicates on plots of 10 plants each. Application A was made at the occurrence of the insects.
structure (smiles),measurement,setting,value
"CCCCCCCCC(=O)O [PA, pelargonic acid]",COUINS # L1-L3/10 plants,"[1]; 585 g/ha (0.9 L/ha), 7 DAA",51.7 % UNCK
same,COUINS # L4/10 plants,"[1]; 585 g/ha (0.9 L/ha), 7 DAA",45 % UNCK
same,COUINS # L1-L3/10 plants,"[1]; 585 g/ha (0.9 L/ha), 10 DAB",68.6 % UNCK
same,COUINS # L4/10 plants,"[1]; 585 g/ha (0.9 L/ha), 10 DAB",64.2 % UNCK
same,COUINS Adults/10 plants,"[1]; 585 g/ha (0.9 L/ha), 10 DAB",48 % UNCK
same,COUINS # L1-L3/10 plants,"[1]; 975 g/ha (1.5 L/ha), 7 DAA",48.5 % UNCK
same,COUINS # L4/10 plants,"[1]; 975 g/ha (1.5 L/ha), 7 DAA",35 % UNCK
same,COUINS # L1-L3/10 plants,"[1]; 975 g/ha (1.5 L/ha), 10 DAB",76 % UNCK
same,COUINS # L4/10 plants,"[1]; 975 g/ha (1.5 L/ha), 10 DAB",77 % UNCK
same,COUINS Adults/10 plants,"[1]; 975 g/ha (1.5 L/ha), 10 DAB",55 % UNCK
same,COUINS # L1-L3/10 plants,"[1]; 1300 g/ha (2.0 L/ha), 7 DAA",70.9 % UNCK
same,COUINS # L4/10 plants,"[1]; 1300 g/ha (2.0 L/ha), 7 DAA",59.9 % UNCK
same,COUINS # L1-L3/10 plants,"[1]; 1300 g/ha (2.0 L/ha), 10 DAB",89.8 % UNCK
same,COUINS # L4/10 plants,"[1]; 1300 g/ha (2.0 L/ha), 10 DAB",86.2 % UNCK
same,COUINS Adults/10 plants,"[1]; 1300 g/ha (2.0 L/ha), 10 DAB",69 % UNCK
same,COUINS # L1-L3/10 plants,"[1]; 2600 g/ha (4.0 L/ha), 7 DAA",73.4 % UNCK
same,COUINS # L4/10 plants,"[1]; 2600 g/ha (4.0 L/ha), 7 DAA",80.9 % UNCK
same,COUINS # L1-L3/10 plants,"[1]; 2600 g/ha (4.0 L/ha), 10 DAB",93.4 % UNCK
same,COUINS # L4/10 plants,"[1]; 2600 g/ha (4.0 L/ha), 10 DAB",92.8 % UNCK
same,COUINS Adults/10 plants,"[1]; 2600 g/ha (4.0 L/ha), 10 DAB",78.9 % UNCK
same,"COUINS, #/25 leaves","Myzus persicae; 585 g/ha (0.9 L/ha), 3 DAA",38.8 % UNCK
same,"COUINS, #/25 leaves","Myzus persicae; 585 g/ha (0.9 L/ha), 3 DAB",68.8 % UNCK
same,"COUINS, #/25 leaves","Myzus persicae; 585 g/ha (0.9 L/ha), 7 DAA",48.7 % UNCK
same,"COUINS, #/25 leaves","Myzus persicae; 585 g/ha (0.9 L/ha), 7 DAB",68.4 % UNCK
same,"COUINS, #/25 leaves","Myzus persicae; 585 g/ha (0.9 L/ha), 14 DAA",52.3 % UNCK
same,"COUINS, #/25 leaves","Myzus persicae; 585 g/ha (0.9 L/ha), 14 DAB",73.4 % UNCK
same,"COUINS, #/25 leaves","Myzus persicae; 975 g/ha (1.5 L/ha), 3 DAA",42.9 % UNCK
same,"COUINS, #/25 leaves","Myzus persicae; 975 g/ha (1.5 L/ha), 3 DAB",72.6 % UNCK
same,"COUINS, #/25 leaves","Myzus persicae; 975 g/ha (1.5 L/ha), 7 DAA",51.2 % UNCK
same,"COUINS, #/25 leaves","Myzus persicae; 975 g/ha (1.5 L/ha), 7 DAB",72.4 % UNCK
same,"COUINS, #/25 leaves","Myzus persicae; 975 g/ha (1.5 L/ha), 14 DAA",54.9 % UNCK
same,"COUINS, #/25 leaves","Myzus persicae; 975 g/ha (1.5 L/ha), 14 DAB",73.2 % UNCK
same,"COUINS, #/25 leaves","Myzus persicae; 1300 g/ha (2.0 L/ha), 3 DAA",61.9 % UNCK
same,"COUINS, #/25 leaves","Myzus persicae; 1300 g/ha (2.0 L/ha), 3 DAB",86.1 % UNCK
same,"COUINS, #/25 leaves","Myzus persicae; 1300 g/ha (2.0 L/ha), 7 DAA",63.9 % UNCK
same,"COUINS, #/25 leaves","Myzus persicae; 1300 g/ha (2.0 L/ha), 7 DAB",86.1 % UNCK
same,"COUINS, #/25 leaves","Myzus persicae; 1300 g/ha (2.0 L/ha), 14 DAA",67.3 % UNCK
same,"COUINS, #/25 leaves","Myzus persicae; 1300 g/ha (2.0 L/ha), 14 DAB",86.5 % UNCK
same,"COUINS, #/25 leaves","Myzus persicae; 2600 g/ha (4.0 L/ha), 3 DAA",68.4 % UNCK
same,"COUINS, #/25 leaves","Myzus persicae; 2600 g/ha (4.0 L/ha), 3 DAB",92.6 % UNCK
same,"COUINS, #/25 leaves","Myzus persicae; 2600 g/ha (4.0 L/ha), 7 DAA",70.8 % UNCK
same,"COUINS, #/25 leaves","Myzus persicae; 2600 g/ha (4.0 L/ha), 7 DAB",92.5 % UNCK
same,"COUINS, #/25 leaves","Myzus persicae; 2600 g/ha (4.0 L/ha), 14 DAA",74.2 % UNCK
same,"COUINS, #/25 leaves","Myzus persicae; 2600 g/ha (4.0 L/ha), 14 DAB",92.4 % UNCK
same,Phytotoxicity - Chlorosis (PHYCHL),"Pea; 585 g/ha (0.9 L/ha), 3 DAA",0
same,Phytotoxicity - Chlorosis (PHYCHL),"Pea; 585 g/ha (0.9 L/ha), 3 DAB",0
same,Phytotoxicity - Chlorosis (PHYCHL),"Pea; 585 g/ha (0.9 L/ha), 7 DAA",0
same,Phytotoxicity - Chlorosis (PHYCHL),"Pea; 585 g/ha (0.9 L/ha), 7 DAB",0
same,Phytotoxicity - Chlorosis (PHYCHL),"Pea; 585 g/ha (0.9 L/ha), 14 DAA",0
same,Phytotoxicity - Chlorosis (PHYCHL),"Pea; 585 g/ha (0.9 L/ha), 14 DAB",0
same,Phytotoxicity - Chlorosis (PHYCHL),"Pea; 585 g/ha (0.9 L/ha), Same day A",0
same,Phytotoxicity - Chlorosis (PHYCHL),"Pea; 585 g/ha (0.9 L/ha), Same day B",0
same,Phytotoxicity - Chlorosis (PHYCHL),"Pea; 975 g/ha (1.5 L/ha), 3 DAA",2
same,Phytotoxicity - Chlorosis (PHYCHL),"Pea; 975 g/ha (1.5 L/ha), 3 DAB",2
same,Phytotoxicity - Chlorosis (PHYCHL),"Pea; 975 g/ha (1.5 L/ha), 7 DAA",2
same,Phytotoxicity - Chlorosis (PHYCHL),"Pea; 975 g/ha (1.5 L/ha), 7 DAB",2
same,Phytotoxicity - Chlorosis (PHYCHL),"Pea; 975 g/ha (1.5 L/ha), 14 DAA",2
same,Phytotoxicity - Chlorosis (PHYCHL),"Pea; 975 g/ha (1.5 L/ha), 14 DAB",0
same,Phytotoxicity - Chlorosis (PHYCHL),"Pea; 975 g/ha (1.5 L/ha), Same day A",0
same,Phytotoxicity - Chlorosis (PHYCHL),"Pea; 975 g/ha (1.5 L/ha), Same day B",3
same,Phytotoxicity - Chlorosis (PHYCHL),"Pea; 1300 g/ha (2.0 L/ha), 3 DAA",5
same,Phytotoxicity - Chlorosis (PHYCHL),"Pea; 1300 g/ha (2.0 L/ha), 3 DAB",6
same,Phytotoxicity - Chlorosis (PHYCHL),"Pea; 1300 g/ha (2.0 L/ha), 7 DAA",6
same,Phytotoxicity - Chlorosis (PHYCHL),"Pea; 1300 g/ha (2.0 L/ha), 7 DAB",6
same,Phytotoxicity - Chlorosis (PHYCHL),"Pea; 1300 g/ha (2.0 L/ha), 14 DAA",4
same,Phytotoxicity - Chlorosis (PHYCHL),"Pea; 1300 g/ha (2.0 L/ha), 14 DAB",0
same,Phytotoxicity - Chlorosis (PHYCHL),"Pea; 1300 g/ha (2.0 L/ha), Same day A",5
same,Phytotoxicity - Chlorosis (PHYCHL),"Pea; 1300 g/ha (2.0 L/ha), Same day B",4
same,Phytotoxicity - Chlorosis (PHYCHL),"Pea; 2600 g/ha (4.0 L/ha), 3 DAA",15
same,Phytotoxicity - Chlorosis (PHYCHL),"Pea; 2600 g/ha (4.0 L/ha), 3 DAB",23
same,Phytotoxicity - Chlorosis (PHYCHL),"Pea; 2600 g/ha (4.0 L/ha), 7 DAA",20
same,Phytotoxicity - Chlorosis (PHYCHL),"Pea; 2600 g/ha (4.0 L/ha), 7 DAB",13
same,Phytotoxicity - Chlorosis (PHYCHL),"Pea; 2600 g/ha (4.0 L/ha), 14 DAA",20
same,Phytotoxicity - Chlorosis (PHYCHL),"Pea; 2600 g/ha (4.0 L/ha), 14 DAB",2
same,Phytotoxicity - Chlorosis (PHYCHL),"Pea; 2600 g/ha (4.0 L/ha), Same day A",15
same,Phytotoxicity - Chlorosis (PHYCHL),"Pea; 2600 g/ha (4.0 L/ha), Same day B",20
same,Phytotoxicity - General Injury (PHYGEN),"Tomato; 650 g/ha (1 L/ha), 0 DAA",0%
same,Phytotoxicity - General Injury (PHYGEN),"Tomato; 650 g/ha (1 L/ha), 2 DAA",0%
same,Phytotoxicity - General Injury (PHYGEN),"Tomato; 650 g/ha (1 L/ha), 8 DAA",0%
same,Phytotoxicity - General Injury (PHYGEN),"Tomato; 650 g/ha (1 L/ha), 15 DAA",0%
same,Phytotoxicity - General Injury (PHYGEN),"Tomato; 1300 g/ha (2 L/ha), 0 DAA",0%
same,Phytotoxicity - General Injury (PHYGEN),"Tomato; 1300 g/ha (2 L/ha), 2 DAA",0%
same,Phytotoxicity - General Injury (PHYGEN),"Tomato; 1300 g/ha (2 L/ha), 8 DAA",0%
same,Phytotoxicity - General Injury (PHYGEN),"Tomato; 1300 g/ha (2 L/ha), 15 DAA",0%
same,Phytotoxicity - General Injury (PHYGEN),"Tomato; 2600 g/ha (4 L/ha), 0 DAA",0%
same,Phytotoxicity - General Injury (PHYGEN),"Tomato; 2600 g/ha (4 L/ha), 2 DAA",0%
same,Phytotoxicity - General Injury (PHYGEN),"Tomato; 2600 g/ha (4 L/ha), 8 DAA",0%
same,Phytotoxicity - General Injury (PHYGEN),"Tomato; 2600 g/ha (4 L/ha), 15 DAA",0%
